# Like-named read-outs stand apart in the source and are kept apart here.
# Columns and labels:
# [1] = tested on: influenza A virus; settings: cited from earlier work
# [2] = tested on: influenza B virus; settings: cited from earlier work
# [3] = tested on: AIDS virus (HIV); settings: cited from earlier work
# [4] = tested on: GMK cells; experiment: Cytotoxicity (HSV UV-238 strain test), microscopic
# [5] = tested on: HSV (UV-238 Strain); experiment: Action on HSV (UV-238 strain), CPE inhibition, TCID50; assay type: cell-based; settings: read-out: Antiviral Activity (ΔTCID50); for log reduction at 1 µg/mL: 1 μg/ml; for log reduction at 5 µg/mL: 5 μg/ml; for log reduction at 25 µg/mL: 25 μg/ml
# [6] = tested on: GMK cells
# [7] = tested on: HSV-1 (Miyama strain); experiment: In vitro antiviral action on cells infected with HSV-1 (Miyama strain), CPE inhibition, TCID50; assay type: cell-based, Herpes simplex virus type 1; settings: read-out: Antiviral Activity (ΔTCID50); for log reduction at 5 µg/mL: 5 μg/ml; for log reduction at 25 µg/mL: 25 μg/ml
# [8] = tested on: HSV-2 (UW-268 strain); experiment: microbe, parasite or virus in culture; assay type: cell-based, Herpes simplex virus type 2; settings: Human alphaherpesvirus 2, Vero, read-out: Antiviral Activity (ΔTCID50)
# [9] = tested on: influenza viruses (A/PR/8 strain); experiment: microbe, parasite or virus in culture; assay type: cell-based, influenza virus A/PR/8; settings: unidentified influenza virus, PR/8, MDCK, read-out: Antiviral Activity (ΔTCID50)
# [10] = tested on: vaccinia viruses (D1E strain); experiment: microbe, parasite or virus in culture; assay type: cell-based; settings: Orthopoxvirus vaccinia, Vero, read-out: Antiviral Activity (ΔTCID50)
# [11] = Acute toxicity testing, oral, mice (LD50, Litchfield-Willcoxon); settings: mouse, in vivo, ICR male mice, 7 days observation
# Description: The compounds to be tested in the form of a 2% aqueous solution of Tween 80 were orally administrated to ICR male mice (weights: 24-30 g), five for each group.
# [12] = tested on: HSV-1 (KOS strain); experiment: microbe, parasite or virus in culture; assay type: cell-based, Herpes simplex virus type 1; settings: Human alphaherpesvirus 1, Vero, read-out: Antiviral Activity (ΔTCID50)
# [13] = tested on: influenza viruses (A/PR/8 strain); experiment: microbe, parasite or virus in culture; assay type: cell-based, influenza virus A/PR/8; settings: unidentified influenza virus, read-out: Antiviral Activity (ΔTCID50)
# [14] = tested on: MDCK cells
# [15] = tested on: HSV-1 (Miyama strain); experiment: In vivo antiviral action: prolongation of life of mice infected with HSV-1; parameters: species or system BALB/c male mice; settings: abdominal route, once a day, control 6.1 ± 0.6
# Description: BALB/c male mice of three weeks old, 10 for each group, were abdominally seeded with an infectious amount, 10LD50, of HSV-1(Miyama strain). One hour later and over six days after the next day, once a day, Compound (5) referred to in Table 1 was continuously administrated to each animal via an abdominal route.
# [16] = tested on: herpes simplex virus; experiment: Antiviral activity, general statement
# [17] = Safety / cytotoxicity, general statement
# [18] = Human alphaherpesvirus 1, 1 μg/ml, GMK cells
# [19] = Human alphaherpesvirus 1, GMK cells
Structure (SMILES),log reduction at 1 µg/mL [5],log reduction at 5 µg/mL [5],log reduction at 25 µg/mL [5],magnitude of cytotoxicity ([6]; 1 μg/ml),"log reduction at 1 µg/mL [7, 18]","log reduction at 5 µg/mL [7, 19]","log reduction at 25 µg/mL [7, 19]",magnitude of cytotoxicity ([6]; 5 μg/ml),also measured
CC(N)C12CC3CC(CC(C3)C1)C2 (racemic) [remantadine],,,,,,,,,efficacy against influenza A virus [1]: efficacious against influenza A virus; efficacy against influenza B virus [2]: not against influenza B virus
Cc1cn([C@H]2C[C@H](N=[N+]=[N-])[C@@H](CO)O2)c(=O)[nH]c1=O [AZT],,,,,,,,,"effect on AIDS [3]: delay the development of AIDS, but cannot accelerate healing"
NC12CC3CC(CC(C3)C1)C2 [Amantadine],,,,,,,,,efficacy against influenza A virus [1]: efficacious against influenza A virus; efficacy against influenza B virus [2]: not against influenza B virus
"Nc1ncnc2c1ncn2[C@@H]1O[C@H](CO)[C@@H](O)[C@@H]1O [Ara-a, reference compound]",1.1,1.7,2.6,-,1.2,1.5,2.5,,magnitude of cytotoxicity ([4]; 1 μg/ml): -
"CC1(C)[C@@H](OC(=O)CCC(=O)O)CC[C@]2(C)[C@H]3C(=O)C=C4[C@@H]5C[C@@](C)(C(=O)O)CC[C@]5(C)CC[C@@]4(C)[C@]3(C)CC[C@@H]12 [Carbenoxolone, reference compound]",0.2,0.2,2.2,,0.2,0.3,2.4,,
"COc1ccccc1N1CCN(C(=O)[C@@]2(C)CC[C@]3(C)CC[C@]4(C)C(=CC[C@@H]5[C@@]6(C)CC[C@H](O[C@@H]7O[C@H](CO)[C@@H](O)[C@H](O)[C@H]7O)C(C)(C)[C@@H]6CC[C@]54C)[C@@H]3C2)CC1 [Comp. Ex. 25, 1-(3β-(β-D-glucopyranosyloxy)-18β-olean-12-en-30-oyl)-4-(2-methoxyphenyl)piperazine]",,,,-,,> 3,> 3.56,-,"log reduction at 1 µg/mL [8]: 1.85; log reduction at 5 µg/mL [8]: 2.92; log reduction at 25 µg/mL [8]: > 3.3; log reduction at 1 µg/mL [9]: 1.31; log reduction at 5 µg/mL [9]: 1.86; log reduction at 25 µg/mL [9]: 2.22; magnitude of cytotoxicity ([6]; 25 μg/ml): ±; log reduction at 1 µg/mL ([7]; Human alphaherpesvirus 1, GMK): 1.86; log reduction at 1 µg/mL [10]: 1.7; log reduction at 5 µg/mL [10]: 2.67; log reduction at 25 µg/mL [10]: 2.53; LD50 at 168 h [11]: > 1000 mg/kg; log reduction at 1 µg/mL [12]: 2.04; log reduction at 5 µg/mL [12]: > 3.19; log reduction at 25 µg/mL [12]: > 3.31"
O=c1[nH]cnc2c1ncn2[C@H]1CC[C@@H](CO)O1 [DDI],,,,,,,,,"effect on AIDS [3]: delay the development of AIDS, but cannot accelerate healing"
"NC(=O)c1ncn([C@@H]2O[C@H](CO)[C@@H](O)[C@H]2O)n1 [Ribavirin, reference compound]",,,,,,,,,"log reduction at 1 µg/mL ([13]; PR/8, 1 μg/ml, MDCK cells): 0.8; log reduction at 5 µg/mL ([13]; PR/8, 5 μg/ml, MDCK cells): 1.8; log reduction at 20 µg/mL ([13]; PR/8, 20 μg/ml, MDCK cells): 3.2; magnitude of cytotoxicity ([14]; 1 μg/ml): -; magnitude of cytotoxicity ([14]; 5 μg/ml): -; magnitude of cytotoxicity ([14]; 20 μg/ml): -"
"COc1ccccc1N1CCN(C(=O)[C@@]2(C)CC[C@]3(C)CC[C@]4(C)C(=CC[C@@H]5[C@@]6(C)CC[C@H](OC(=O)/C=C\C(=O)O)C(C)(C)[C@@H]6CC[C@]54C)[C@@H]3C2)CC1 [Table 1, Comp. (5), 1-[3β-(3-carboxy-cis-propenoyloxy)-18β-olean-12-en-30-oyl]-4-(2-methoxyphenyl)piperazine]",1.3,2.2,2.8,-,1,2.1,3.1,-,"Mean Survival Days (average ± standard error) ([15]; 5 mg/Kg): 7.9 ± 1.1 days; Mean Survival Days (average ± standard error) ([15]; 10 mg/Kg, p < 0.05 (t-Test)): 8.6 ± 0.7 days; Mean Survival Days (average ± standard error) ([15]; 20 mg/Kg, p < 0.001 (t-Test)): 11.2 ± 1.1 days; magnitude of cytotoxicity ([4]; 1 μg/ml): -; magnitude of cytotoxicity ([4]; 5 μg/ml): -; magnitude of cytotoxicity ([4]; 25 μg/ml): -; log reduction at 1 µg/mL ([13]; PR/8, MDCK): 0.8; log reduction at 5 µg/mL ([13]; PR/8, MDCK): 1.2; log reduction at 20 µg/mL ([13]; PR/8, MDCK): 2.1; magnitude of cytotoxicity [14]: -; magnitude of cytotoxicity ([6]; 25 μg/ml): -"
"COc1ccccc1N1CCN(C(=O)[C@@]2(C)CC[C@]3(C)CC[C@]4(C)C(=CC[C@@H]5[C@@]6(C)CC[C@H](O)C(C)(C)[C@@H]6CC[C@]54C)[C@@H]3C2)CC1 [Table 1, Comp. (9), 1-(3β-hydroxy-18β-olean-12-en-30-oyl)-4-(2-methoxyphenyl) piperazine]",0.7,1.3,2.5,-,1.3,1.2,,,"magnitude of cytotoxicity ([4]; 1 μg/ml): -; log reduction at 1 µg/mL ([13]; PR/8, MDCK): 0.5; log reduction at 5 µg/mL ([13]; PR/8, MDCK): 1; log reduction at 20 µg/mL ([13]; PR/8, MDCK): 1.3"
"CC(C)=CCCC(C)=CCCC(C)=CCN1CCN(C(=O)[C@@]2(C)CC[C@]3(C)CC[C@]4(C)C(=CC[C@@H]5[C@@]6(C)CC[C@H](OC(=O)/C=C\C(=O)O)C(C)(C)[C@@H]6CC[C@]54C)[C@@H]3C2)CC1 [Table 1, Comp. (10)]",,,,-,0.7,2,1.9,,
"COc1ccccc1N1CCN(C(=O)[C@@]2(C)CC[C@]3(C)CC[C@]4(C)C(=CC[C@@H]5[C@@]6(C)CC[C@H](OC(=O)CCC(=O)O)C(C)(C)[C@@H]6CC[C@]54C)[C@@H]3C2)CC1 [Table 1, Comp. (13), 1-[3β-(3-carboxypropanoyloxy)-18β-olean-12-en-30-oyl]-4-(2-methoxyphenyl)piperazine]",0.9,1.4,2.5,-,0.8,2.6,2.5,-,"antiviral activity [16]: a particularly high antiviral activity; magnitude of cytotoxicity ([4]; 1 μg/ml): -; magnitude of cytotoxicity ([4]; 5 μg/ml): -; log reduction at 1 µg/mL ([13]; PR/8, MDCK): 0.4; log reduction at 5 µg/mL ([13]; PR/8, MDCK): 0.6; log reduction at 20 µg/mL ([13]; PR/8, MDCK): 1.5; safety / cytotoxic action [17]: of greatly safety"
"CC1(C)[C@@H](OCC(=O)O)CC[C@]2(C)[C@H]3CC=C4[C@@H]5C[C@@](C)(C(=O)O)CC[C@]5(C)CC[C@@]4(C)[C@]3(C)CC[C@@H]12 [Table 1, Comp. (15), disodium-3β-carboxymethoxy-18β-olean-12-en-30-oate]",,,,-,0,0.3,1,-,
"CC1(C)[C@@H](OCCC(=O)O)CC[C@]2(C)[C@H]3CC=C4[C@@H]5C[C@@](C)(C(=O)O)CC[C@]5(C)CC[C@@]4(C)[C@]3(C)CC[C@@H]12 [Table 1, Comp. (18), disodium-3β-(2-carboxyethoxy)-18β-olean-12-en-30-oate]",,,,-,0.7,1.6,1.2,-,

# Source: patent US5356880A, “Glycyrrhetinic acid derivatives” (priority 1991, dated 1994)
